Patent publication US7927612B2, “Combinations and methods for treating neoplasms” (priority 2000, dated 2011)
“And” between values parts separate entries of the source, which are not always exact repeats. Identical values can stand only once.

Columns and labels:
[1] = Body weight of tumor-bearing mice in the treatment efficacy study (Example 9, Tables 14-16); format: in vivo, Kuiking mice; design: unit: g; conditions: control group
Experimental: Kuiking mice were used in this study. The average weight of the mice used in this study is about 23 grams. About 10^3 liver cancer cells were implanted into the left army pit of mice. At about 10 days, the small tumor grew under the mice skin. At about 15 days, the tumor grew to about 1 cm size. The mice were divided into three groups: control group, therapy group and immunotherapy group. In the control group, 0.1 ml of Ara-C in normal saline was injected to the tumor via intro-tumor injection.
In the immunotherapy group, 0.1 ml of the combination of ethanol, H2O2, anticancer drug AraC, hemotoxilin and TNP in normal saline was injected to the tumor via intro-tumor injection.

liver cancer cells = test: Treatment efficacy study in mice with implanted liver cancer cells: tumor volume (Example 9, Tables 14-16); format: in vivo, Kuiking mice; design: Everage TV1 (average tumor volume): unit not given here; conditions: control group
Experimental: Kuiking mice were used in this study. The average weight of the mice used in this study is about 23 grams. About 10^3 liver cancer cells were implanted into the left army pit of mice. […] The mice were divided into three groups: control group, therapy group and immunotherapy group. In the control group, 0.1 ml of Ara-C in normal saline was injected to the tumor via intro-tumor injection. […]

[2] = Date (start), individual mice No. 1-10

With Cytidine Arabinosyladenine [Ara-C] the Weight ([1]; 1 d, individual mice) was 25 (3×) and 20 and 21 and 17 and 25.5 and 18 and 23.5 and 27, the Weight ([1]; 2 d, individual mice) was 24 (2×) and 19 (2×) and 16.5 and 17 and 23.8 and 17.5 and 21 and 25 and the Weight ([1]; 3 d, individual mice) was 22 (4×) and 17.5 and 17 and 15 and 16.5 and 20 and 23.5. For the same substance, the Weight ([1]; 4 d, individual mice) was 26.5 and 24 (2×) and 28.2 and 22.8 and 15.8 and 16.5 and 26 and 20 and 28.5, the Weight ([1]; 5 d, individual mice) was 24.5 and 30 and 28.5 and 24 (2×) and 28 and 19 and 26.5 and 21.5 and the Weight ([1]; 6 d, individual mice) was 23.5 and 31 and 29.5 and 24.5 and 28 (2×) and 24 and 19 and 22. For the same substance, the Weight ([1]; 7 d, individual mice) was 24 (2×) and 32.5 and 29 and 24.5 and 28.5 and 19.5 and 28 and 21, the Weight ([1]; 8 d, individual mice) was 24.5 (3×) and 33 and 24 and 28.5 (2×) and 20 and 21 and the Weight ([1]; 9 d, individual mice) was 24.5 (2×) and 33.5 and 23.5 and 28.5 (2×) and 21 and 29 and 23. For the same substance, the Weight [1, 2] was 23.5 and 24 and 22.5 and 18 and 18.5 and 14 and 23 and 14.5 and 20 and 26, the “Everage TV1 (average tumor volume)” value (liver cancer cells; 1 d) was 0.8 and the “TV (tumor volume)” value (liver cancer cells; 1 d, individual mice) was 1.3*0.7*0.5 = 0.455 Scm and 1.1*0.8*0.6 = 0.528 Scm and 1.4*1.1*1 = 1.54 Scm and 1*0.9*0.6 = 0.54 Scm and 1.1*1*0.7 = 0.77 Scm and 1.3*0.9*0.8 = 0.94 Scm and 1*0.7*0.7 = 0.49 Scm and 1.1*0.7*0.6 = 0.462 Scm. The “Everage TV1 (average tumor volume)” value (liver cancer cells; 2 d) was 1.33, the “TV (tumor volume)” value (liver cancer cells; 2 d, individual mice) was 1.2*1.1*0.8 = 1.1 Scm and 1.2*0.9*0.5 = 0.54 Scm and 1.4*1.2*0.8 = 1.34 Scm and 1*0.8*0.6 = 0.48 Scm and 1.3*0.6*0.5 = 0.39 Scm and 1.3*1*0.8 = 1.04 Scm and 1.3*0.8*0.7 = 0.73 Scm and 1.2*1.1*0.8 = 1.06 Scm and 1.2*1*0.8 = 0.96 Scm and 1.3*0.9*0.6 = 0.702 Scm and the “Everage TV1 (average tumor volume)” value (liver cancer cells; 3 d) was 1.47. The “TV (tumor volume)” value (liver cancer cells; 3 d, individual mice) was 1.1*1.2*0.7 = 0.924 Scm and 1.5*1.2*1 = 1.8 Scm (2×) and 1.2*0.9*0.6 = 0.648 Scm and 1.2*1.1*0.8 = 1.1 Scm and 1.2*1*0.6 = 0.72 Scm and 1.4*1.1*0.7 = 1.08 Scm and 1.4*1.2*0.8 = 1.34 Scm and 1*1*0.6 = 0.6 Scm, the “Everage TV1 (average tumor volume)” value (liver cancer cells; 4 d) was 1.47 and the “TV (tumor volume)” value (liver cancer cells; 4 d, individual mice) was 1.3*1.4*1.1 = 2 Scm and 1.5*1*0.6 = 0.99 Scm and 1.6*1.4*1 = 2.24 Scm and 1.2*0.8*0.5 = 1 Scm and 1.6*1.3*1.4 = 2.9 Scm and 1.4*0.8*0.6 = 0.67 Scm and 1.5*1.2*1.1 = 1.98 Scm and 1.2*1.1*0.8 = 1.06 Scm and 1.3*1.1*0.8 = 1.14 Scm and 1*1*0.7 = 0.7 Scm. For the same substance, the “Everage TV1 (average tumor volume)” value (liver cancer cells; 5 d) was 1.65, the “TV (tumor volume)” value (liver cancer cells; 5 d, individual mice) was 1.4*1*1 = 1.4 Scm and 1.5*1.3*1 = 1.95 Scm and 1.5*1.1*0.7 = 1.16 Scm and 1.7*1.3*0.9 = 1.98 Scm and 1.2*1.2*0.7 = 1 Scm and 1.5*1.3*0.9 = 1.75 Scm and 1.7*1.4*1 = 2.38 Scm and 1.4*1.4*1 = 1.96 Scm and 1.6*1*0.8 = 1.28 Scm and the “Everage TV1 (average tumor volume)” value (liver cancer cells; 6 d) was 1.87. The “TV (tumor volume)” value (liver cancer cells; 6 d, individual mice) was 1.3*1.1*0.8 = 1.14 Scm and 1.6*1.3*1.1 = 2.28 Scm and 1.2*1*0.5 = 0.6 Scm and 1.8*1.2*1 = 2.16 Scm and 1.3*1.5*0.6 = 1.17 Scm and 1.6*1.4*1 = 2.24 Scm and 1.9*1.6*1.2 = 3.6 Scm and 1.5*1.4*1.1 = 2.31 Scm and 1.4*1.2*0.8 = 1.34 Scm, the “Everage TV1 (average tumor volume)” value (liver cancer cells; 7 d) was 2.59 and the “TV (tumor volume)” value (liver cancer cells; 7 d, individual mice) was 1.5*0.8*0.7 = 0.84 Scm and 1.8*1.6*1.5 = 4.32 Scm and 1.4*0.9*0.6 = 0.76 Scm and 1.9*1.4*1.2 = 3.19 Scm and 1.5*1.3*0.9 = 1.76 Scm and 1.9*1.5*1 = 2.85 Scm and 1.8*1.5*1.5 = 4 Scm and 1.5*1.4*1.3 = 2.73 Scm and 1.5*1.6*1.2 = 2.88 Scm. The “Everage TV1 (average tumor volume)” value (liver cancer cells; 8 d) was 2.73, the “TV (tumor volume)” value (liver cancer cells; 8 d, individual mice) was 1.3*0.9*0.7 = 0.819 Scm and 1.4*1.5*1.3 = 2.73 Scm and 1.8*1.2*1.2 = 2.59 Scm and 1.2*0.7*0.6 = 0.5 Scm and 1.5*1.5*1.2 = 2.7 Scm and 1.5*1.6*1.4 = 3.36 Scm and 1.5*1.3*1.2 = 2.34 Scm and 1.5*1.4*1.2 = 2.52 Scm and 1.5*1.2*1.1 = 1.98 Scm and the “Everage TV1 (average tumor volume)” value (liver cancer cells; 9 d) was 3.12. The “TV (tumor volume)” value (liver cancer cells; 9 d, individual mice) was 1.5*1.2*0.9 = 1.62 Scm and 1.8*1.8*1.8 = 5.8 Scm and 1.9*1.5*1.4 = 3.99 Scm and 1.6*1.1*0.7 = 1.2 Scm and 2.1*1.5*1.4 = 4.4 Scm and 1.3*1.4*1.1 = 2 Scm and 1.7*1.4*1.1 = 2.62 Scm and 1.4*1.6*1.4 = 3.14 Scm and 1.8*1.4*1.3 = 3.28 Scm, the “Everage TV1 (average tumor volume)” value (liver cancer cells; Date (start)) was 0.343 and the “TV (tumor volume)” value (liver cancer cells; [2]) was 0.8*0.6*0.4 = 0.192 Scm and 1*0.5*0.3 = 0.15 Scm and 1.3*0.9*0.6 = 0.7 Scm and 1*0.7*0.5 = 0.35 Scm and 0.9*0.7*0.5 = 0.32 Scm and 0.8*0.6*0.5 = 0.24 Scm and 1*0.9*0.6 = 0.54 Scm and 1*0.8*0.5 = 0.4 Scm and 0.7*0.7*0.6 = 0.294 Scm and 0.7*0.7*0.5 = 0.245 Scm.
